# Test results as given in patent US7544497B2, “Compositions for manipulating the lifespan and stress response of cells and organisms” (President and Fellows of Harvard College, priority 2003, dated 2009).
# “And” between values parts separate entries of the source, which are not always exact repeats. Identical values can stand only once.
# Key:
# S. cerevisiae = experiment: Yeast replicative lifespan by micro-manipulation; details: 10 μM; for Average lifespan: complete 2% glucose medium, wild type untreated 22.9
# D. melanogaster = D. melanogaster adult survival assay; format: in vivo
# Protocol: Survival assays were conducted independently with adult D. melanogaster in two laboratories. In the first laboratory, all trials used an yw marked wild-type strain. […] Newly eclosed adults were placed in 1L demography cages with approximately 75 males and 75 females. Three to four replicate 1L demography cages were used for each treatment group in each trial. Every two days, dead flies were removed and scored, and food vials were replenished. Food vials contained cornmeal-sugar-yeast diet with SAF yeast as either 2% or 3% by weight. […] Fresh stock solutions and adult media were prepared weekly. In the second laboratory, lifespan trials were conducted with the wild type strain Canton-S, dSir2^4.5 and […], University of Oregon), […], Stockholm University, Sweden), and dSir2^KG00871 (Drosophila Stock Center, Bloomington, Ind.). Larvae for all tests were reared on standard cornmeal-sugar-yeast diet. […] In all trials, 20 males with 20 females were placed into each of 10 vials/treatment group. Every two days, flies were passed into new vials and dead flies were counted. […] Fresh stock solution and adult media was prepared weekly.
# Human 293 cells = experiment: Survival of 293 cells (Coulter counter); format: cell-based; details: 50 micromolar
# Protocol: Human 293 were grown to exponential phase under standard conditions and subjected to a dose of compound (50 micromolar) for 96 hours. The number of live cells each time point was counted using a Coulter counter.
# recombinant human SIRT1 = molecular target: T1, recombinant human SIRT1 (Homo sapiens, UniProt Q96EB6); experiment: SIRT1 fluorescent deacetylation assay (p53-382 acetylated peptide substrate); format: biochemical; details: for SIRT1 stimulating activity (in words): 25 μM NAD+, 25 μM p53-382 acetylated peptide
# T1 sequence (Q96EB6 1-747): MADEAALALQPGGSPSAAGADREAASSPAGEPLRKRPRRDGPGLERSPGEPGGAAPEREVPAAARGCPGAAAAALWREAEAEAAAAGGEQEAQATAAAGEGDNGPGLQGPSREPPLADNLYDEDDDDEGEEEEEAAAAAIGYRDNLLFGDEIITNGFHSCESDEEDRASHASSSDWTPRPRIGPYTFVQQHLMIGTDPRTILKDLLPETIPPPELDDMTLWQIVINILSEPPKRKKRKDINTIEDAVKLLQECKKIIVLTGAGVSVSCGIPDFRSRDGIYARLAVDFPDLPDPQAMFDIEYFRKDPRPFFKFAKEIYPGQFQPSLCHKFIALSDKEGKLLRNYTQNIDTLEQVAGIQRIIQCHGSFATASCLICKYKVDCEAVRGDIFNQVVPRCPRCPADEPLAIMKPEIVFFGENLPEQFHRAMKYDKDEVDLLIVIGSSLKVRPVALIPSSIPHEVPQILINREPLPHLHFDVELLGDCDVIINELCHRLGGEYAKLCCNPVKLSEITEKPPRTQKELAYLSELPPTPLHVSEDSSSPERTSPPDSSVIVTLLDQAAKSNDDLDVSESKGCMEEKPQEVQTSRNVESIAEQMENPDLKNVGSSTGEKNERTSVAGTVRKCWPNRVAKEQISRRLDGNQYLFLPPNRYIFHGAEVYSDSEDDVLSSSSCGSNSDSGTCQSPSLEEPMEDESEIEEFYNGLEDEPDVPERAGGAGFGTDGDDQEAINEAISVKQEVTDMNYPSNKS
# Excerpt: To identify compounds that modulate SIRT1 activity, we screened a number of small molecule libraries using a fluorescent deacetylation assay in 96-well plates^26. The substrate used in the assay was a fluorogenic peptide based on the sequence encompassing the p53-K382 acetylation site, a known target of SIRT1 in vivo^20,21,27. This substrate was preferred over a variety of other fluorogenic peptide substrates that were based on other known HDAC targets (FIG. 5). The small molecule libraries included analogues of nicotinamide, ε-acetyl lysine, NAD^+, nucleotides, nucleotide analogues and purinergic ligands. From the initial screen, several sirtuin inhibitors were found (Supplementary Table 7). However, the most striking outcome was the identification of two compounds, quercetin and piceatannol, that stimulated SIRT1 activity five and eight-fold, respectively (Table 1). Both quercetin and piceatannol have been previously identified as protein kinase inhibitors^28,29.
# His6-tagged recombinant SIRT1 and GST-tagged recombinant Sir2 were prepared as previously described^26. From 0.1 to 1 μg of SIRT1 and 1.5 μg of Sir2 were used per deacetylation assay (in 50 μl total reaction) as previously described^26. SIRT1 assays and certain of those for Sir2 employed the p53-382 acetylated substrate (‘Fluor de Lys-SIRT1’, BIOMOL) rather than FdL.
# Themed compound libraries (BIOMOL) were used for primary and secondary screening. […] For water soluble compounds and negative controls, 1% v/v DMSO was added to the assay. […] HeLa cells were grown and the cellular deacetylation assays were performed and read, as above, but in full-volume 96-well microplates (Corning Costar 3595). Unless otherwise indicated all initial rate measurements were means of three or more replicates, obtained with single incubation times, at which point 5% or less of the substrate initially present had been deacetylated. Calculation of net fluorescence increases included subtraction of a blank value, which in the case of Sir2 was obtained by omitting the enzyme from the reaction and in the case of SIRT1 by adding an inhibitor (200 μM suramin or 1 mM nicotinamide) to the reaction prior to the acetylated substrate. […] All error bars represent the standard error of the mean.
# All SIRT1 rate measurements used in the calculation of “Ratio to Control Rate” were obtained with 25 μM NAD^+ and 25 μM p53-382 acetylated peptide substrate were performed as described above and in K. T. Howitz et al. Nature (2003) 425: 191. All ratio data were calculated from experiments in which the total deacetylation in the control reaction was 0.25-1.25 μM peptide or 1-5% of the initial concentration of acetylated peptide.
# SIRT1 deacetylase = molecular target: T2, SIRT1 deacetylase (Homo sapiens, UniProt Q96EB6); experiment: High-throughput SIRT1 screening protocol (384 well); format: biochemical; details: 200 μM NAD+, 5 μM Fluor de Lys-SIRT1 substrate; roughly 50 μM
# T2 construct: purchased BIOMOL
# T2 sequence (Q96EB6 1-747): T1 sequence (Q96EB6 1-747)
# Protocol: The reaction mixture contains (final): 0.5 units/reaction SIRT1 deacetylase (BIOMOL); 200 μM NAD^+; 5 μM Fluor de Lys-SIRT1 substrate (BIOMOL); buffer (25 mM Tris/Cl, pH 8.0, 137 mM NaCl, 2.7 mM KCl, 1 mM MgCl2, and 1 mg/ml BSA). In addition, a reaction mixture containing no enzyme was made so that each well receiving compound has a corresponding “no enzyme control” well. Reactions were performed in black 384 well plates (NUNC) in a final volume of 25 μl/well.
# The reactions were started by combining enzyme and substrate in a reaction mixture immediately prior to aliquoting in plates (or substrate only for “no enzyme control” plates). Mixture were aliquoted to plates using Biotek μFill (Biotek Instruments). Control mixtures were manually added to designated wells. A library compound was added at a desired concentration by pin transfer to both “with enzyme” and “no enzyme” plates. Compounds were added in at least triplicate (with enzyme reaction in duplicate and no enzyme controls) at a final concentration of roughly 50 μM. The plates were incubated at 37° C. for 30-60 minutes. Then 25 μl of 1× Developer II (BIOMOL) plus 2 mM nicotinamide were added to all wells to stop the reactions. The reactions were left for at least 30 minutes at 37° C. for the signal to develop. The plates were read in a microplate-reading fluorometer capable of excitation at a wavelength in the range of 350-380 nm and detection of emitted light in the range of 440-460 nm. A read time of 0.1 sec per well was used.
# C. elegans = C. elegans lifespan assay; format: in vivo; details: 100/500 μM, N2 worms, E. coli as food; untreated 100%
# Protocol: Thus, the presence of resveratrol in the growth media of C. elegans extends their lifespan.
# Bristol N2 (Caenorhabditis Genetics Center) was used as the wild-type strain. The sir-2.1 mutant strain was generated by backcrossing VC199 (sir-2.1 (ok434)) to N2 four times. Cultures were grown on standard NGM media and maintained on E. coli strain OP50. For the lifespan assays, synchronized animals were transferred to treatment plates as young adults (2 d after hatching, day 0 of assay), and were transferred to fresh treatment plates every 2 days for the first 6 to 8 days of the assay. […] For some lifespan trials, heat-killed OP50 were used as a food source. OP50 cultures were heated to 65° C. for 30 minutes, then pelleted and resuspended in 1/10 volume in S Basal supplemented with 10 mM MgSO4. In all assays, worms were monitored daily for mortality by gently probing with a platinum pick. Assays were performed at 24° C.
# [1] = Solution stability (t1/2) from SIRT1 fold-stimulation of aged stock; format: physicochemical; details: ethanol stock 2.5 mM, room temperature, nitrogen atmosphere
# Excerpt: The fold-stimulation (ratio to control) obtained with a compound diluted from an aged stock solution was compared to an identical dilution from a stock solution freshly prepared from the solid compound. “t1/2” is defined as the time required for the SIRT1 fold-stimulation of the compound from the aged solution to decay to one-half of that obtained from a freshly prepared solution. […] Stocks were aged by storage at room temperature, in glass vials, under a nitrogen atmosphere.
smiles,measurement,setting,value
O=C(/C=C/c1ccc(O)c(O)c1)c1ccc(O)cc1O [butein],Average lifespan,S. cerevisiae,35.5 generations
O=c1c(O)c(-c2ccc(O)c(O)c2)oc2cc(O)ccc12 [fisetin],longevity on restricted diet,D. melanogaster; restricted diet,neither resveratrol nor fisetin further increased longevity
same,lifespan extension (up to),"D. melanogaster; wild type, males and females, independent tests",up to 23%
same,Average lifespan,S. cerevisiae,30.0 generations
CCc1ccc(/C=C/c2cc(O)cc(O)c2)cc1 [BML-225],Survival of 293 cells,Human 293 cells; 0 h,100%
same,Survival of 293 cells,Human 293 cells; 48 h,5%
same,Survival of 293 cells,Human 293 cells; 96 h,8%
O=c1c(O)c(-c2ccc(O)c(O)c2)oc2cc(O)cc(O)c12 [quercetin],stimulation of SIRT1 activity,recombinant human SIRT1; initial screen,five
same,Average lifespan,S. cerevisiae,23.4 generations
"O=C(Nc1cc(O)cc(O)c1)c1ccccc1 [BML-219, N-(3,5-Dihydroxyphenyl)benzamide]",SIRT1 stimulating activity (in words),recombinant human SIRT1,abolished activity
[N-]=[N+]=Nc1ccc(/C=C/c2cc(O)cc(O)c2)cc1 [BML-232],SIRT1 stimulating activity (in words),recombinant human SIRT1,very similar SIRT1 activating properties to resveratrol
NC(=O)c1cccnc1 [Nicotinamide],SIRT1 Vmax decrease,"recombinant human SIRT1; 50 μM nicotinamide, absence of resveratrol, NAD+ or p53-382 acetylated peptide varied",30% and 36%
O=c1c(-c2ccc(O)cc2)coc2cc(O)cc(O)c12 [genistein],SIRT1 stimulating activity (in words),recombinant human SIRT1,absence of activity
Cc1ccc(/C=C/c2cc(O)cc(O)c2)cc1 [BML-228],Survival of 293 cells,Human 293 cells; 0 h,100%
same,Survival of 293 cells,Human 293 cells; 48 h,46%
same,Survival of 293 cells,Human 293 cells; 96 h,32%
"Oc1cc(O)cc(/C=C/c2ccccc2)c1 [Pinosylvin, 3,5-Dihydroxy-trans-stilbene]",SIRT1 stimulating activity (in words),recombinant human SIRT1,did not significantly diminish
same,activation of SIRT1 (positive controls),SIRT1 deacetylase,3.28 fold
Oc1cc(O)cc(/C=C/c2ccc(O)c(O)c2)c1 [piceatannol],Average lifespan,S. cerevisiae,24.0 generations
CSc1ccc(/C=C/c2cc(O)cc(O)c2)cc1 [BML-230],"SIRT1 dose response, stimulated activity compared with resveratrol","recombinant human SIRT1; 25 μM NAD+ and p53-382 acetylated peptide, 20 minutes",exceeds that stimulated by resveratrol at all concentrations tested
same,ratio (R) of BML-230-stimulated to resveratrol-stimulated SIRT1 rate,"recombinant human SIRT1; 500 μM activator, 25 μM NAD+ and p53-382 acetylated peptide, 20 minutes",~1.4
same,Survival of 293 cells,Human 293 cells; 0 h,100%
same,Survival of 293 cells,Human 293 cells; 48 h,55%
same,Survival of 293 cells,Human 293 cells; 96 h,57%
"CC(=O)Oc1cc(O)cc(/C=C/c2ccc(O)cc2)c1 [BML-221, 3,4′-Dihydroxy-5-acetoxy-trans-stilbene]",% change in C. elegans lifespan relative to untreated organisms,C. elegans,>100% (ongoing)
same,solution stability relative to resveratrol,[1],vast improvement
same,% change in yeast replicative lifespan relative to untreated organisms,"S. cerevisiae; 2% (w/v) glucose YPD, untreated 100%",165%
"COc1ccc(/C=C/c2cc(O)cc(O)c2)cc1 [BML-233, 3,5-Dihydroxy-4′-methoxy-trans-stilbene]",activation of SIRT1 (positive controls),SIRT1 deacetylase,2.1 fold
"Oc1cc(O)cc(/C=C/c2ccc(Cl)cc2)c1 [BML-217, 3,5-Dihydroxy-4′-chloro-trans-stilbene]",SIRT1 stimulating activity (in words),recombinant human SIRT1,did not significantly diminish
Oc1cc(O)cc(/C=C/C2CCCCC2)c1 [BML-224],SIRT1 stimulating activity (in words),recombinant human SIRT1,nearly as detrimental
